Laboratory results published in PubChem BioAssay AID248 (DTP/NCI, 2004).
Where “and” joins values, the source holds several entries; their conditions need not be identical. Identical values can stand only once. Inconclusive results and toxic doses are left out.

Tested on: L1210 leukemia ip in BDF1 mice, survival T/C
Assay: NCI In Vivo Anticancer Drug Screen. Data for tumor model L1210 Leukemia (intraperitoneal) in B6D2F1 (BDF1) mice
Details: higher = longer survival
How it was run: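 Mice bearing the transplanted tumor received compound or vehicle. Survival of the treated group was divided by that of the vehicle-treated control group to give the ratio.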

[1] = endpoint: mean survival time, dose: 100.0 mg/kg/injection, schedule: Q01DX009 (ip), vehicle: saline with Tween-80
[2] = endpoint: mean survival time, dose: 200.0 mg/kg/injection, schedule: Q01DX009 (ip), vehicle: saline with Tween-80
[3] = endpoint: mean survival time, dose: 100.0 mg/kg/injection, schedule: Q04DX002 (ip), vehicle: saline
[4] = endpoint: mean survival time, dose: 200.0 mg/kg/injection, schedule: Q04DX002 (ip), vehicle: saline
[5] = endpoint: mean survival time, dose: 400.0 mg/kg/injection, schedule: Q04DX002 (ip), vehicle: saline
[6] = endpoint: mean survival time, dose: 100.0 mg/kg/injection, schedule: Q04DX003 (ip), vehicle: saline with Tween-80
[7] = endpoint: mean survival time, dose: 200.0 mg/kg/injection, schedule: Q04DX003 (ip), vehicle: saline with Tween-80
[8] = endpoint: mean survival time, dose: 400.0 mg/kg/injection, schedule: Q01DX009 (ip), vehicle: saline with Tween-80
[9] = endpoint: mean survival time, dose: 400.0 mg/kg/injection, schedule: Q04DX003 (ip), vehicle: saline with Tween-80
[10] = endpoint: mean survival time, dose: 400.0 mg/kg/injection, schedule: Q04DX002 (ip), vehicle: saline with Tween-80

CC(C)P(CP(=S)(c1ccccc1)c1ccccc1)c1ccccc1 (centres undefined)
T/C (endpoint: mean survival time, dose: 100.0 mg/kg/injection, schedule: Q04DX003 (ip), vehicle: carboxymethylcellulose (CMC)): 98 % of control | T/C (endpoint: mean survival time, dose: 200.0 mg/kg/injection, schedule: Q04DX003 (ip), vehicle: carboxymethylcellulose (CMC)): 100 % of control | T/C (endpoint: mean survival time, dose: 400.0 mg/kg/injection, schedule: Q04DX003 (ip), vehicle: carboxymethylcellulose (CMC)): 93 % of control

COC(=O)C(C(=O)OC)C(c1ccccc1)C(Br)(C(=O)OC)C(=O)OC (centres undefined)
T/C [1]: 102 % of control | T/C [2]: 94 % of control

CCC1C(=O)OC(=O)c2oc3ccc(Cl)cc3c21 (centres undefined)
T/C (endpoint: mean survival time, dose: 100.0 mg/kg/injection, schedule: Q01DX001 (ip), vehicle: Klucel (hydroxypropylcellulose) (HPC)): 100 % of control | T/C (endpoint: mean survival time, dose: 200.0 mg/kg/injection, schedule: Q01DX001 (ip), vehicle: Klucel (hydroxypropylcellulose) (HPC)): 102 % of control | T/C (endpoint: mean survival time, dose: 400.0 mg/kg/injection, schedule: Q01DX001 (ip), vehicle: Klucel (hydroxypropylcellulose) (HPC)): 94 % of control

CCN(CC)CCCCNc1ccc(NCCCCN(CC)CC)c2c1C(=O)c1ccccc1C2=O
T/C (endpoint: mean survival time, dose: 25.0 mg/kg/injection, schedule: Q04DX002 (ip), vehicle: alcohol): 106 % of control | T/C (endpoint: mean survival time, dose: 50.0 mg/kg/injection, schedule: Q04DX002 (ip), vehicle: alcohol): 95 % of control | T/C (endpoint: mean survival time, dose: 100.0 mg/kg/injection, schedule: Q04DX002 (ip), vehicle: alcohol): 92 % of control

Cc1ccnc(-n2c(N)cc(=O)[nH]c2=S)c1
T/C [3]: 102 % of control | T/C [4]: 107 % of control | T/C [5]: 107 % of control

c1cc(-c2ccc(C3=NCCN3)cc2)ccc1C1=NCCN1
T/C (endpoint: mean survival time, dose: 15.0 mg/kg/injection, schedule: Q01DX Z (ip), vehicle: saline): 104 % of control | T/C (endpoint: mean survival time, dose: 30.0 mg/kg/injection, schedule: Q01DX Z (ip), vehicle: saline): 104 % of control | T/C (endpoint: mean survival time, dose: 60.0 mg/kg/injection, schedule: Q01DX Z (ip), vehicle: saline): 87 % of control

CN(Cc1cnc2nc(N)nc(N)c2n1)c1ccc(C(=O)NC(CCC(=O)O)C(=O)O)cc1F (centres undefined)
T/C (endpoint: median survival time, dose: 1.25 mg/kg/injection, schedule: Q01DX009 (ip), vehicle: other): 150 % of control | T/C (endpoint: median survival time, dose: 2.5 mg/kg/injection, schedule: Q01DX009 (ip), vehicle: other): 161 % of control

Cc1ccc(C)c(-n2c(-c3ccc(Br)cc3)csc2=NC(=O)c2ccccc2F)c1
T/C [1]: 102 % of control | T/C [6]: 101 % of control | T/C [2]: 101 % of control | T/C [7]: 98 % of control | T/C [8]: 93 % of control | T/C [9]: 102 % of control

CC(=O)c1ccc(C#N)cc1.[Co+3].[NH2-].[NH2-].[NH2-].[NH2-].[NH2-].[O-][Cl+3]([O-])([O-])O
T/C [3]: 104 % of control | T/C [4]: 111 % of control | T/C [5]: 108 % of control

O=C1c2ccccc2-c2cc(Cl)cc(Cl)c21
T/C (endpoint: mean survival time, dose: 100.0 mg/kg/injection, schedule: Q01DX001 (ip), vehicle: carboxymethylcellulose (CMC)): 95 % of control | T/C (endpoint: mean survival time, dose: 200.0 mg/kg/injection, schedule: Q01DX001 (ip), vehicle: carboxymethylcellulose (CMC)): 96 % of control | T/C (endpoint: mean survival time, dose: 400.0 mg/kg/injection, schedule: Q01DX001 (ip), vehicle: carboxymethylcellulose (CMC)): 102 % of control

C=CCc1ccc(OCCOCCN(CC=C(C)C)CC=C(C)C)c(OC)c1
T/C (endpoint: mean survival time, dose: 12.5 mg/kg/injection, schedule: Q01DX009 (ip), vehicle: Klucel (hydroxypropylcellulose) (HPC)): 100 % of control | T/C (endpoint: mean survival time, dose: 12.5 mg/kg/injection, schedule: Q04DX003 (ip), vehicle: Klucel (hydroxypropylcellulose) (HPC)): 96 % of control | T/C (endpoint: mean survival time, dose: 25.0 mg/kg/injection, schedule: Q01DX009 (ip), vehicle: Klucel (hydroxypropylcellulose) (HPC)): 97 % of control | T/C (endpoint: mean survival time, dose: 25.0 mg/kg/injection, schedule: Q04DX003 (ip), vehicle: Klucel (hydroxypropylcellulose) (HPC)): 98 % of control | T/C (endpoint: mean survival time, dose: 50.0 mg/kg/injection, schedule: Q01DX009 (ip), vehicle: Klucel (hydroxypropylcellulose) (HPC)): 95 % of control | T/C (endpoint: mean survival time, dose: 50.0 mg/kg/injection, schedule: Q04DX003 (ip), vehicle: Klucel (hydroxypropylcellulose) (HPC)): 88 % of control

COC(=O)C1CC2(C(=O)OC)CC(C(=O)OC)(CC(C(=O)OC)C2=O)C1=O (centres undefined)
T/C (endpoint: mean survival time, dose: 50.0 mg/kg/injection, schedule: Q04DX002 (ip), vehicle: Klucel (hydroxypropylcellulose) (HPC)): 93 % of control | T/C (endpoint: mean survival time, dose: 100.0 mg/kg/injection, schedule: Q04DX002 (ip), vehicle: Klucel (hydroxypropylcellulose) (HPC)): 102 % of control | T/C (endpoint: mean survival time, dose: 100.0 mg/kg/injection, schedule: Q04DX003 (ip), vehicle: Klucel (hydroxypropylcellulose) (HPC)): 95 % of control | T/C (endpoint: mean survival time, dose: 200.0 mg/kg/injection, schedule: Q04DX002 (ip), vehicle: Klucel (hydroxypropylcellulose) (HPC)): 108 % of control | T/C (endpoint: mean survival time, dose: 200.0 mg/kg/injection, schedule: Q04DX003 (ip), vehicle: Klucel (hydroxypropylcellulose) (HPC)): 89 % of control | T/C (endpoint: mean survival time, dose: 400.0 mg/kg/injection, schedule: Q04DX003 (ip), vehicle: Klucel (hydroxypropylcellulose) (HPC)): 92 % of control

O=C(Nc1cccc([N+](=O)[O-])c1)Oc1ccc(-c2ccccc2)cc1
T/C [1]: 101 % of control and 103 % of control | T/C (endpoint: mean survival time, dose: 100.0 mg/kg/injection, schedule: Q04DX002 (ip), vehicle: saline with Tween-80): 97 % of control and 111 % of control | T/C [6]: 93 % of control | T/C [2]: 100 % of control and 101 % of control | T/C (endpoint: mean survival time, dose: 200.0 mg/kg/injection, schedule: Q04DX002 (ip), vehicle: saline with Tween-80): 96 % of control and 104 % of control | T/C [7]: 93 % of control | T/C [8]: 94 % of control | T/C [10]: 93 % of control and 103 % of control | T/C [9]: 102 % of control

NS(=O)(=O)c1ccc(N=Nc2nc3[nH]cnc(=S)c3[nH]2)cc1
T/C (endpoint: mean survival time, dose: 8.0 mg/kg/injection, schedule: Q01DX009 (ip), vehicle: saline): 116 % of control | T/C (endpoint: mean survival time, dose: 15.0 mg/kg/injection, schedule: Q01DX009 (ip), vehicle: saline): 121 % of control | T/C (endpoint: mean survival time, dose: 62.5 mg/kg/injection, schedule: Q01DX015 (ip), vehicle: saline): 115 % of control | T/C (endpoint: mean survival time, dose: 125.0 mg/kg/injection, schedule: Q01DX015 (ip), vehicle: saline): 121 % of control | T/C (endpoint: mean survival time, dose: 250.0 mg/kg/injection, schedule: Q01DX009 (ip), vehicle: saline): 104 % of control | T/C (endpoint: mean survival time, dose: 250.0 mg/kg/injection, schedule: Q01DX015 (ip), vehicle: saline): 153 % of control

Cc1ccc(Cl)c(NC(=O)Nc2cccc(F)c2)c1
T/C (endpoint: mean survival time, dose: 100.0 mg/kg/injection, schedule: Q01DX009 (ip), vehicle: Klucel (hydroxypropylcellulose) (HPC)): 94 % of control | T/C (endpoint: mean survival time, dose: 200.0 mg/kg/injection, schedule: Q01DX009 (ip), vehicle: Klucel (hydroxypropylcellulose) (HPC)): 87 % of control | T/C (endpoint: mean survival time, dose: 400.0 mg/kg/injection, schedule: Q01DX009 (ip), vehicle: Klucel (hydroxypropylcellulose) (HPC)): 89 % of control

CN(C(=O)COc1ccc(N2C(N)=NC(N)=NC2(C)C)cc1Cl)c1ccc(S(=O)(=O)F)cc1
T/C (endpoint: mean survival time, dose: 100.0 mg/kg/injection, schedule: Q01DX001 (ip), vehicle: saline with Tween-80): 112 % of control | T/C (endpoint: mean survival time, dose: 200.0 mg/kg/injection, schedule: Q01DX001 (ip), vehicle: saline with Tween-80): 102 % of control | T/C (endpoint: mean survival time, dose: 400.0 mg/kg/injection, schedule: Q01DX001 (ip), vehicle: saline with Tween-80): 105 % of control

O=[N+]([O-])/C=C\c1cc(Cl)c(/C=C/[N+](=O)[O-])c(Cl)c1Cl
T/C (endpoint: mean survival time, dose: 2.5 mg/kg/injection, schedule: Q01DX009 (ip), vehicle: saline): 88 % of control | T/C (endpoint: mean survival time, dose: 10.0 mg/kg/injection, schedule: Q01DX001 (ip), vehicle: acetone): 89 % of control | T/C (endpoint: mean survival time, dose: 10.0 mg/kg/injection, schedule: Q04DX003 (ip), vehicle: acetone): 91 % of control | T/C (endpoint: mean survival time, dose: 20.0 mg/kg/injection, schedule: Q01DX001 (ip), vehicle: acetone): 94 % of control | T/C (endpoint: mean survival time, dose: 20.0 mg/kg/injection, schedule: Q04DX003 (ip), vehicle: acetone): 101 % of control

Cc1ccnc(SC#N)n1
T/C (endpoint: mean survival time, dose: 5.0 mg/kg/injection, schedule: Q01DX001 (ip), vehicle: other): 105 % of control | T/C (endpoint: mean survival time, dose: 10.0 mg/kg/injection, schedule: Q01DX001 (ip), vehicle: other): 105 % of control

CCCCC(CC)CN(CC(CC)CCCC)c1nc(Cl)nc(N(CC(CC)CCCC)CC(CC)CCCC)n1 (centres undefined)
T/C (endpoint: mean survival time, dose: 25.6 mg/kg/injection, schedule: Q04DX002 (ip), vehicle: saline with Tween-80): 91 % of control | T/C (endpoint: mean survival time, dose: 64.0 mg/kg/injection, schedule: Q04DX002 (ip), vehicle: saline with Tween-80): 97 % of control | T/C [6]: 92 % of control | T/C (endpoint: mean survival time, dose: 160.0 mg/kg/injection, schedule: Q04DX002 (ip), vehicle: saline with Tween-80): 91 % of control | T/C [7]: 94 % of control | T/C [10]: 91 % of control | T/C [9]: 92 % of control

COC(=O)CCC(=O)c1cccc(C)c1
T/C [6]: 88 % of control | T/C [7]: 99 % of control | T/C [9]: 94 % of control

COC1OC2COC(c3ccccc3)OC2C(N=[N+]=[N-])C1O (centres undefined)
T/C (endpoint: mean survival time, dose: 100.0 mg/kg/injection, schedule: Q01DX001 (ip), vehicle: gum acacia): 100 % of control | T/C (endpoint: mean survival time, dose: 200.0 mg/kg/injection, schedule: Q01DX001 (ip), vehicle: gum acacia): 97 % of control | T/C (endpoint: mean survival time, dose: 400.0 mg/kg/injection, schedule: Q01DX001 (ip), vehicle: gum acacia): 92 % of control
